For one test, the target named is T1, GST-JAK2(808-1132) (Homo sapiens, UniProt O60674).
T1 construct: GST-JAK2(808-1132); purchased Invitrogen (Carlsbad, USA) #4288
Put plainly: JAK2 kinase assay (Caliper mobility shift, LabChip 3000). The class given is biochemical. The method, boiled down:
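Recombinant GST-JAK2(808-1132) kinase domain with FITC-labelled JAK3tide peptide substrate and ATP; 60 min at 30 °C, EDTA stop. Substrate/product ratio read by microfluidic mobility shift; compounds at 8 final concentrations, 10 to 0.003 μM.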

Test [1] relates to JAK1/JAK2-dependent nuclear translocation of STAT1-GFP in HT1080 fibrosarcoma cells. Put plainly: STAT1 nuclear translocation assay (Cellomics), IFN-γ stimulated HT1080 STAT1-GFP cells. The class given is cell-based. The following applies: Homo sapiens, HT-1080, STAT1 translocation pathway. The method, boiled down: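 HT1080 cells stably expressing STAT1-GFP, pre-treated 30 min with compound (10 μM–0.003 μM, 0.1% DMSO), then stimulated 2 h with 100 ng/ml IFN-γ, fixed and Hoechst-stained. Nuclear-cytoplasmic GFP differential imaged over ≥1000 cells/well, normalised to unstimulated and DMSO-stimulated wells for IC50.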

Consider 27 compounds from patent publication US8420657B2 (Novartis AG, priority 2008, dated 2013).

Molecules are shown by their SMILES.

T1 sequence (O60674 808-1132): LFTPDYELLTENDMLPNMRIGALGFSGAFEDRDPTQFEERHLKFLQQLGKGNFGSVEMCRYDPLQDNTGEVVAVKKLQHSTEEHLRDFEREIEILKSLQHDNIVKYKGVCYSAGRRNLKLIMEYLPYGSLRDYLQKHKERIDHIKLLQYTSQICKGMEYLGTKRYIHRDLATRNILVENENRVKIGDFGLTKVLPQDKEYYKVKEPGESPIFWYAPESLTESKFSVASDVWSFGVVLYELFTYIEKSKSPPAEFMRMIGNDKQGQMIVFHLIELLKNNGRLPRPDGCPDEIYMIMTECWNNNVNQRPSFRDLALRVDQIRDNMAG

In general, IC50 refers to the concentration that gives 50% inhibition. On to `CN1CCN(Cc2cccc(Nc3ncc4ccn(-c5cc(F)c(CN6CCOCC6)c(F)c5)c4n3)c2)CC1` [Example 199, [7-(3,5-Difluoro-4-morpholin-4-ylmethyl-phenyl)-7H-pyrrolo[2,3-d]pyrimidin-2-yl]-[3-(4-methyl-piperazin-1-ylmethyl)-phenyl]-amine], for which the IC50 was less than 0.003 µM at GST-JAK2(808-1132) and 0.222 µM in test [1].
On to `Cc1ccc(Nc2ncc3ccn(-c4ccc(C(=O)N5CCN(C)CC5)cc4)c3n2)cc1C` [Example 170, {4-[2-(3,4-Dimethyl-phenylamino)-pyrrolo[2,3-d]pyrimidin-7-y]-phenyl}-(4-methyl-piperazin-1-yl)-methanone], for which the figures for the IC50 (on GST-JAK2(808-1132); in test [1]) were 0.017 µM and 0.374 µM, respectively.
Consider `Fc1cc(-n2ccc3cnc(Nc4ccc(CN5CCOCC5)cc4)nc32)cc(F)c1CN1CCOCC1` [Example 197, [7-(3,5-Difluoro-4-morpholin-4-ylmethyl-phenyl)-7H-pyrrolo[2,3-d]pyrimidin-2-yl]-(4-morpholin-4-ylmethyl-phenyl)-amine], for which the IC50 was less than 0.003 µM on GST-JAK2(808-1132) and 0.09 µM in test [1].
Regarding `Cc1ccc(Nc2ncc3ccn(-c4ccc(C(=O)N5CCS(=O)(=O)CC5)cc4)c3n2)cn1` [Example 249, (1,1-Dioxido-thiomorpholin-4-yl)-{4-[2-(6-methyl-pyridin-3-ylamino)-pyrrolo[2,3-d]pyrimidin-7-yl]-phenyl}-methanone], the IC50 at GST-JAK2(808-1132) worked out at 0.0043 µM; in test [1] it was 0.815 µM.
Turning to `CC(C)Oc1ccc(Nc2ncc3ccn(-c4ccc(N5CCNCC5=O)cc4)c3n2)cc1` [Example 104, 1-{4-[2-(4-Isopropoxy-phenylamino)-pyrrolo[2,3-d]pyrimidin-7-yl]-phenyl}-piperazin-2-one], the 50% inhibitory concentration (IC50) is 0.0036 µM on GST-JAK2(808-1132) and 0.865 µM in test [1].
`CN(C)CCN(C)C(=O)c1ccc(Nc2ncc3ccn(-c4ccc(S(C)(=O)=O)cc4)c3n2)cc1` [Example 65, N-(2-Dimethylamino-ethyl)-4-[7-(4-methanesulfonyl-phenyl)-7H-pyrrolo[2,3-d]pyrimidin-2-ylamino]-N-methyl-benzamide]: the IC50 on GST-JAK2(808-1132) worked out at 0.0054 µM; in test [1] it was 0.0995 µM.
As for `Cc1cc(Nc2ncc3ccn(-c4ccc(S(C)(=O)=O)cc4)c3n2)ccc1F` [Example 81, (4-Fluoro-3-methyl-phenyl)-[7-(4-methanesulfonyl-phenyl)-7H-pyrrolo[2,3-d]pyrimidin-2-yl]-amine], the half-inhibitory concentration (IC50) on GST-JAK2(808-1132) was 0.018 µM; in test [1], 2.7 µM.
`Cc1cncc(Nc2ncc3ccn(-c4cc(F)c(C(=O)N5CCOCC5)c(F)c4)c3n2)c1` [Example 242, {2,6-Difluoro-4-[2-(5-methyl-pyridin-3-ylamino)-pyrrolo[2,3-d]pyrimidin-7-yl]-phenyl}-morpholin-4-yl-methanone]: the values for the IC50 (at GST-JAK2(808-1132); in test [1]) were 0.0043 µM and 0.355 µM, respectively.
As to `CN1CCN(C(=O)c2ccc(Nc3ncc4ccn(-c5ccc(S(C)(=O)=O)cc5)c4n3)cc2C(F)(F)F)CC1` [Example 72, {4-[7-(4-Methanesulfonyl-phenyl)-7H-pyrrolo[2,3-d]pyrimidin-2-ylamino]-2-trifluoromethyl-phenyl}-(4-methyl-piperazin-1-yl)-methanone], the concentration for half-maximal inhibition (IC50) at GST-JAK2(808-1132) amounted to 0.0037 µM; in test [1], 0.75 µM.
On to `CS(=O)(=O)c1ccc(-n2ccc3cnc(Nc4cccc(C(=O)N5CCOCC5)c4)nc32)cc1` [Example 49, {3-[7-(4-Methanesulfonyl-phenyl)-7H-pyrrolo[2,3-d]pyrimidin-2-ylamino]-phenyl}-morpholin-4-yl-methanone], for which the results for the IC50 (at GST-JAK2(808-1132); in test [1]) were 0.014 µM and 0.878 µM, respectively.
On the same counts, the results for `C[C@@H]1CN(c2ccc(Nc3ncc4ccn(-c5ccc(S(C)(=O)=O)cc5)c4n3)cn2)C[C@H](C)N1` [Example 273, [6-(cis-3,5-Dimethyl-piperazin-1-yl)-pyridin-3-yl]-[7-(4-methanesulfonyl-phenyl)-7H-pyrrolo[2,3-d]pyrimidin-2-yl]-amine] are 0.006 µM and 0.19 µM.
On the same counts, the results for `CN(C)C1CCN(C(=O)c2ccc(Nc3ncc4ccn(-c5ccc(S(C)(=O)=O)cc5)c4n3)cc2)CC1` [Example 66, (4-Dimethylamino-piperidin-1-yl)-{4-[7-(4-methanesulfonyl-phenyl)-7H-pyrrolo[2,3-d]pyrimidin-2-ylamino]-phenyl}-methanone] are 0.0035 µM and 0.0755 µM.
`Cc1ccc(Nc2ncc3cc(C)n(-c4ccc(CN5CCOCC5)c(F)c4)c3n2)cc1C` [Example 163, (3,4-Dimethyl-phenyl)-[7-(3-fluoro-4-morpholin-4-ylmethyl-phenyl)-6-methyl-7H-pyrrolo[2,3-d]pyrimidin-2-yl]-amine]: the results for the IC50 (on GST-JAK2(808-1132); in test [1]) were 0.295 µM and 23.5 µM, respectively.
The corresponding values for `O=C(c1c(F)cc(-n2ccc3cnc(Nc4cccnc4)nc32)cc1F)N1CCOCC1` [Example 216, {2,6-Difluoro-4-[2-(pyridin-3-ylamino)-pyrrolo[2,3-d]pyrimidin-7-yl]-phenyl}-morpholin-4-yl-methanone] are 0.0033 µM and 0.579 µM.
As for `O=C(c1c(F)cc(-n2ccc3cnc(Nc4nccs4)nc32)cc1F)N1CCOCC1` [Example 246, {2,6-Difluoro-4-[2-(thiazol-2-ylamino)-pyrrolo[2,3-d]pyrimidin-7-yl]-phenyl}-morpholin-4-yl-methanone], the IC50 on GST-JAK2(808-1132) was 0.028 µM; in test [1], 4 µM.
In the case of `CCOc1ccc(Nc2ncc3cc(C)n(-c4ccc(CC(=O)N5CCN(C)CC5)cc4)c3n2)cc1OCC` [Example 167, 2-{4-[2-(3,4-Diethoxy-phenylamino)-6-methyl-pyrrolo[2,3-d]pyrimidin-7-yl]-phenyl}-1-(4-methyl-piperazin-1-yl)-ethanone], the half-inhibitory concentration (IC50) on GST-JAK2(808-1132) is 0.039 µM; in test [1], 2.07 µM.
As for `CC(C)Oc1ccc(Nc2ncc3ccn(-c4ccc(C(C)(C)C(=O)N5CCOCC5)cc4)c3n2)cc1` [Example 83, 2-{4-[2-(4-Isopropoxy-phenylamino)-pyrrolo[2,3-d]pyrimidin-7-yl]-phenyl}-2-methyl-1-morpholin-4-yl-propan-1-one], the half-maximal inhibitory concentration (IC50) on GST-JAK2(808-1132) was less than 0.003 µM; in test [1], 0.46 µM.
For `COc1cc(Nc2ncc3ccn(-c4ccc(S(=O)(=O)NC(C)(C)C)cc4)c3n2)cc(OC)c1OC` [Example 8, N-tert-Butyl-4-[2-(3,4,5-trimethoxy-phenylamino)-pyrrolo[2,3-d]pyrimidin-7-yl]-benzenesulfonamide], the IC50 at GST-JAK2(808-1132) was less than 0.003 µM; in test [1] it was 0.032 µM.
In the case of `Cc1ccc(Nc2ncc3ccn(-c4cc(F)c(CN5CCOCC5)c(F)c4)c3n2)cc1CN1CCNC(=O)C1` [Example 334, 4-{5-[7-(3,5-Difluoro-4-morpholin-4-ylmethyl-phenyl)-7H-pyrrolo[2,3-d]pyrimidin-2-ylamino]-2-methyl-benzyl}-piperazin-2-one], the IC50 at GST-JAK2(808-1132) was no more than 0.003 µM; in test [1], 0.26 µM.
With `CS(=O)(=O)c1ccc(-n2ccc3cnc(Nc4ccc(CN5CCOCC5)cc4)nc32)cc1` [Example 44, [7-(4-Methanesulfonyl-phenyl)-7H-pyrrolo[2,3-d]pyrimidin-2-yl]-(4-morpholin-4-ylmethyl-phenyl)-amine], the IC50 at GST-JAK2(808-1132) is less than 0.003 µM; in test [1], 0.143 µM.
On the same counts, the results for `Cc1ccc(Nc2ncc3ccn(-c4ccc(CN5CCOCC5)c(F)c4)c3n2)cc1Cl` [Example 118, (3-Chloro-4-methyl-phenyl)-[7-(3-fluoro-4-morpholin-4-ylmethyl-phenyl)-7H-pyrrolo[2,3-d]pyrimidin-2-yl]-amine] are 0.075 µM and 1.52 µM.
Take `CS(=O)(=O)c1ccc(-n2ccc3cnc(Nc4ccc(Cn5ccnc5)cc4)nc32)cc1` [Example 43, (4-Imidazol-1-ylmethyl-phenyl)-[7-(4-methanesulfonyl-phenyl)-7H-pyrrolo[2,3-d]pyrimidin-2-yl]-amine]: the values for the half-maximal inhibitory concentration (IC50) (on GST-JAK2(808-1132); in test [1]) were less than 0.003 µM and 0.35 µM, respectively.
`Cc1cc(Nc2ncc3ccn(-c4ccc(C(=O)N5CCOCC5)c(F)c4)c3n2)ccc1F` [Example 92, {2-Fluoro-4-[2-(4-fluoro-3-methyl-phenylamino)-pyrrolo[2,3-d]pyrimidin-7-yl]-phenyl}-morpholin-4-yl-methanone]: the IC50 was found to be 0.0042 µM on GST-JAK2(808-1132) and 0.26 µM in test [1].
On to `CC(C)Oc1ccc(Nc2ncc3ccn(-c4ccc(CN5CCS(=O)(=O)CC5)c(F)c4)c3n2)cc1` [Example 112, {7-[4-(1,1-Dioxido-thiomorpholin-4-ylmethyl)-3-fluoro-phenyl]-7H-pyrrolo[2,3-d]pyrimidin-2-yl}-(4-isopropoxy-phenyl)-amine], for which the IC50 was less than 0.003 µM on GST-JAK2(808-1132) and 0.073 µM in test [1].
On the same counts, the results for `Cc1ccc(Nc2ncc3ccn(-c4ccc(S(C)(=O)=O)cc4)c3n2)cn1` [Example 229, [7-(4-Methanesulfonyl-phenyl)-7H-pyrrolo[2,3-d]pyrimidin-2-yl]-(6-methyl-pyridin-3-yl)-amine] are 0.021 µM and 1.58 µM.
`Cc1ccc(Nc2ncc3ccn(-c4ccc(C(=O)N5CCN(C)CC5)c(F)c4)c3n2)cc1C` [Example 155, {4-[2-(3,4-Dimethyl-phenylamino)-pyrrolo[2,3-d]pyrimidin-7-yl]-2-fluoro-phenyl}-(4-methyl-piperazin-1-yl)-methanone]: the IC50 at GST-JAK2(808-1132) was determined as 0.2 µM; in test [1], 3.27 µM.
As to `OCCN1CCN(c2ccc(Nc3ncc4ccn(-c5cc(F)c(CN6CCOCC6)c(F)c5)c4n3)cn2)CC1` [Example 265, 2-(4-{5-[7-(3,5-Difluoro-4-morpholin-4-ylmethyl-phenyl)-7H-pyrrolo[2,3-d]pyrimidin-2-ylamino]-pyridin-2-yl}-piperazin-1-yl)-ethanol], the IC50 on GST-JAK2(808-1132) is less than 0.003 µM; in test [1] it was 0.04 µM.
